Test results reported in patent US20150086618A1, “PHOSPHOLIPID MICELLAR AND LIPOSOMAL COMPOSITIONS AND USES THEREOF” (THE BOARD OF TRUSTEES OF THE UNIVERSITY OF ILLINOIS, priority 2008, published 2015).
Where no end group is shown, it is not given here.

How the values were obtained:
[1] = system: TREM-1 promoter-driven luciferase gene; test: TREM1-luciferase reporter assay in RAW 264.7 macrophages stimulated with P. aeruginosa PA103; type: cell-based, mouse; details: RAW 264.7 cells pre-treated 18 hr, then PA103 24 hr; compared to saline-treated PA103-stimulated cells
Text: Murine macrophages (RAW 264.7 cells) were transfected with a pro-inflammatory mediator ‘triggering receptor expressed on myeloid cells’ (TREM-1) promoter-driven luciferase gene. TREM-1 is an immunoglobulin superfamily (IgSF) molecule that amplifies inflammation and is a crucial mediator of septic shock (Bouchon et al., Nature 410: 1103-1107, 2001). The macrophages were pre-treated for 18 hr with the following treatments: (i) saline, (ii) SSM, (iii) sub-micellar concentration of lipid (lipid), (iv) GLP-SSM (GM), or (v) VIP-SSM (VM), in the presence or absence of Exendin(9-39) or (VIP(6-28). To allow for the presence of excess antagonist to compete with its respective peptide agonist for receptor binding, the concentration of each receptor antagonist used (10 μM) was 10 times greater than its peptide agonist (1 μM). Inflammation of cells was induced by the addition of the Gram-negative bacteria Pseudomonas aeruginosa (P. aeruginosa strain PA103) for an additional 24 hr, and luciferase activities were measured (see FIG. 1).
The preparation of samples was carried out as follows: The SSM stock solution (1.59 mM) was prepared by weighing approximately 2.23 mg of DSPE-PEG2000 into a round bottom flask (RBF). Saline (˜0.5 ml) was added to achieve a concentration of 1.59 mM. […]
TREM1 expression levels were determined as set out below. […]

[2] = α-helicity of LP17 and control peptide in saline and SSM; type: physicochemical; details: peptide 20 μM, SSM 5 mM
Experimental: The α-helicity of LP17 (20 μM) in saline and in SSM (5 mM) was tested. A control peptide ([…] (SEQ ID NO:2)) was also tested in saline and in SSM at the same concentrations.

NF-κB = test: NF-κB-driven luciferase reporter assay in bone marrow-derived macrophages (BMDM) with LPS; type: cell-based, mice; details: 24 h
Text: Bone marrow-derived macrophages (BMDM) from a primary macrophage cell line, extracted from mice transfected with a nuclear factor-kappa B (NF-κB)-driven luciferase reporter plasmid, were used in these experiments. In this cell line, the expression of NF-κB (a proinflammatory mediator) induces the expression of a luciferase gene in a concentration-dependent manner. Therefore, the expression level of NF-κB in BMDM can be quantified indirectly by the magnitude of luminescence produced [relative luminescence units (RLU)] via a luciferase assay. BMDM were subjected to treatment with either saline, saline+LPS, SSM, SSM+LPS, GLP, GLP+LPS, GLP-SSM (GM), GM+LPS, VIP, VIP+LPS, VIP-SSM (VM), and VM+LPS. The resulting inflammatory responses induced by the different agents was then quantified via a luciferase assay to determine the expression level of NF-κB.
Test reagents for use in the experiments were prepared using the following protocols as set out in detail below. SSM stock solution (1.56 mM): Weigh approximately 2.2 mg of DSPE-PEG2000 into a round bottom flask (RBF). Add the required volume of saline (˜0.5 ml) to achieve a concentration of 1.56 mM. Vortex the mixture for 2 minutes at maximum speed. Flush the solution with argon and equilibrate in the dark at 25° C. for at least 1 hour. […] Dissolve in the required volume of saline (˜30 μl) to form stock solution (173.3 μM). Test samples and controls were prepared as set out in Table 2, and samples and control were incubated at 25° C. for 2 h in the dark. VIP stock solution (176.67 μM≡587.57 μg/ml): Weigh approximately 12 μg of VIP peptide. Saline (˜20 μl) was added to form the stock solution (176.67 μM). LPS stock solution (LPS is weighed from lyophilized powder and dissolved in PBS; each well contains 1 μg/ml).
Preparation of cells for test: Extracted bone marrow cells were grown for 7 days in liquid culture medium (LCM) containing full medium. Old medium was removed and fresh medium (10-20 ml) was added. Cells were dislodged by scraping using a cell scraper, and the cells were counted. The concentration of cells was adjusted with medium to the test concentration of 10^5 cells/ml. Cells (10^5) (˜1 ml) were plated into each well of a 12-well plate. This procedure was repeated until 16 wells were plated with cells. Cells were incubated for 24 h at 37° C., 5% CO2. This allowed cells to adhere to the culture plate. After 24 h, medium was removed and replaced with serum-starved medium (with 2% FBS, phenol red containing DMEM and Pen/Strep (P/S)). Cells were incubated at 37° C., 5% CO2.
Determination of NF-κB expression level: Before addition of sample/control, the media was removed from each well; washed with PBS and 0.5 ml of serum free media (DMEM with no phenol red, FCS or antibiotics) was added into each well. Cells were treated as set out in Table 3 below. Cells were then incubated for 24 h at 37° C. The culture media was collected from each well. Remaining cells were washed twice with PBS; 100 μl of cell lysis buffer (luciferase kit) was added; cells were dislodged with a cell scraper and collected in centrifuge tubes. All samples were stored at −80° C. if not used immediately. The expression level of NF-kappa B (relative luminescence units (RLU)) in the cell lysate from each well was measured using a luciferase assay (Cat#1500, Promega). The protein content of each sample was measured using a Bradford protein assay to normalize results from the luciferase assay. The results are set out in Table 3 below and in FIG. 2.

Q: For Exendin (9-39), which “luciferase activity (expression level of TREM 1)” value [1] is on record?
A: Its value is “absence of anti-inflammatory effect”.

Q: Which “percent α-helicity in SSM compared to saline” value [2] does the source give for “TDSRCVIGLYHPPLQVY (SEQ ID NO:2) (listed as Mus musculus) [control peptide, control peptide for LP17]” here?
A: Its value is “No significant difference”.

Q: Which “luciferase activity (expression level of TREM 1)” value [1] does the source give for “VIP(6-28): VIP receptor antagonist (FTDNYTRLRKQMAVKKYLNSILN; ends and bridges not checked; UniProt P01282 130-152, looked up, fragment)” here?
A: Its value is “absence of anti-inflammatory effect”.

Q: Which “Relative Luminescence Units (RLU) Normalized to Protein Concentration, Ave.” value (NF-κB; + LPS (1 μg/ml)) does the source give for “vasoactive intestinal peptide (HSDAVFTDNYTRLRKQMAVKKYLNSILN; ends and bridges not checked; UniProt P01282 125-152, looked up) [VIP, peptide hormone containing 28 amino acid residues, free peptide in saline]” here?
A: Its value is 311.39 RLU.

Q: And the “Relative Luminescence Units (RLU) Normalized to Protein Concentration, Trial 1” value (NF-κB; + LPS (1 μg/ml))?
A: The value was 329.26 RLU.

Q: What about the “Relative Luminescence Units (RLU) Normalized to Protein Concentration, Trial 2” value (NF-κB; + LPS (1 μg/ml)) of the same substance?
A: The value was 342.42 RLU.

Q: And the “Relative Luminescence Units (RLU) Normalized to Protein Concentration, Trial 3” value (NF-κB; + LPS (1 μg/ml))?
A: The value was 306.81 RLU.

Q: And the “Relative Luminescence Units (RLU) Normalized to Protein Concentration, Trial 4” value (NF-κB; + LPS (1 μg/ml))?
A: The value was 267.10 RLU.

Q: And the “Relative Luminescence Units (RLU) Normalized to Protein Concentration, Ave.” value (NF-κB; control without LPS)?
A: Its value is 73.70 RLU.

Q: And the “Relative Luminescence Units (RLU) Normalized to Protein Concentration, Trial 1” value (NF-κB; control without LPS)?
A: The value was 57.78 RLU.

Q: And the “Relative Luminescence Units (RLU) Normalized to Protein Concentration, Trial 2” value (NF-κB; control without LPS)?
A: Its value is 90.09 RLU.

Q: What about the “Relative Luminescence Units (RLU) Normalized to Protein Concentration, Trial 3” value (NF-κB; control without LPS) of the same substance?
A: Its value is 60.50 RLU.

Q: And the “Relative Luminescence Units (RLU) Normalized to Protein Concentration, Trial 4” value (NF-κB; control without LPS)?
A: The value was 86.45 RLU.
